Laboratory results reported in article PMC12294314, “Bioactive Properties of Persea americana Peel Extract and Their Role in Hypercholesterolemia Management and Cardiovascular Health” (Foods, 2025).
Where two headings read alike, the source gives them in different places. Blank lines part the entries; values can stand above or below the compound they belong to.

Assays:
[1] = test system: Caco-2 cells; test: Permeation of extract compounds across Caco-2 monolayer (Papp); type: in vitro ADME, human
Protocol: (§1) The permeation of the extract in Caco-2 cells was evaluated for three phenolic compounds previously identified and quantified, namely chlorogenic acid, catechin, and epicatechin. […] After 6 h, a sample was collected from the basolateral side and analyzed by HPLC-DAD, using a LiChroCART® 250-4 LiChrospher® 100 RP-18 (5 μm) column (Merck KGaA, Darmstadt, Germany), following the conditions described in a previous study.

[2] = as above; type: in vitro ADME, human; conditions: human
Protocol: as §1

[3] = test system: HepG2 cells; test: Reactive oxygen species (ROS) production in HepG2 cells (DCFDA); type: cell-based, human; conditions: TBHP 200 µM alone, 6 h, PBS control = 100%
Protocol: The quantification of reactive oxygen species (ROS) produced in the HepG2 cell line was assessed. HepG2 cells were plated at a concentration of 2.5 × 10^4 cells/well in a black, transparent-bottom 96-well microplate and incubated for 24 h. Afterward, a solution of the 2′,7′–dichlorodifluorescin diacetate (DCFDA) (0.1 mM) was added to the cells and they were incubated in the dark for 45 min. The solution was then removed, and the following samples were applied: a control with only the PBS, tert-butyl hydroperoxide (TBHP) at 200 µM, the extract at 0.164 mg/mL, and a combination of the extract and THBP with their final concentrations being 0.164 mg/mL and 200 µM, respectfully. The microplate was incubated for 6 h in the dark, after which fluorescence was measured with excitation at 495 nm and emission at 527 nm, both at 37 °C (SpectraMax® GEMINI XPS/EM, Molecular Devices®, San Jose, CA, USA). ROS production was determined using Equation (1) by considering that the fluorescence produced by the control group was 100%.(1) ROS Production % =AbsSample/AbsControl × 100 where AbsSample corresponds to the absorbance of the samples and AbsControl corresponds to the absorbance of the control. The assays were carried out in quadruplicate.

[4] = test system: Caco-2 cells; test: Cholesterol permeation across differentiated Caco-2 monolayer; type: cell-based, human; conditions: cholesterol 5 mM apical, 6 h, extract 0.240 mg/mL, ezetimibe 0.1 mM (methods) / 0.01 mM (Figure 3 legend)
Protocol: The cholesterol permeation assays were carried out by following the protocol described by Arantes et al.. Caco-2 cells were cultured in a 12-well microplate with inserts (A = 1.1 cm^2) and maintained until differentiation. To evaluate the integrity of the membrane, transepithelial electrical resistance (TEER) of the formed membrane was measured. When the TEER value exceeded 250 Ω·cm^2, it was considered that the membrane was formed.
Subsequently, 0.5 mL of the solutions to be analyzed was added on the apical side of each insert: cholesterol (5 mM) (control), extract (0.240 mg/mL), extract (0.240 mg/mL) with cholesterol (5 mM), and ezetimibe (0.1 mM) with cholesterol (5 mM). On the basolateral side, 1.5 mL of the Hank’s Balanced Salt Solution (HBSS) was added. The cells were incubated at 37 °C in a 5% CO2 atmosphere for 6 h. After this period, the basolateral solution of each well was collected and analyzed by high-performance liquid chromatography coupled to a diode-array detector (HPLC-DAD) using an Elite LaChrom® (HITACHI, VWR, Tokyo, Japan), with an Autosampler L-2200, a Column Oven L-2300, and a Diode Array Detector L 2455 (VWR, Radnor, PA, USA). The column used was LiChroCART® 250-4 LiCrosphere®100 RP-8 (5 μm) (Merk, Darmstadt, Germany). The conditions followed were the ones presented by Pinto et al.. […]

SMILES: Oc1cc(O)c2c(c1)OC(c1ccc(O)c(O)c1)C(O)C2 (single isomer, unassigned; (+)) [Catechin (13), (+)-Catechin]
Papp ([1]; Caco-2): 14.4 10^−6 cm/s

SMILES: CC(C)(C)OO [TBHP, tert-butyl hydroperoxide]
ROS production (% of control) [3]: approximately 395%

SMILES: O=C1[C@H](CC[C@H](O)c2ccc(F)cc2)[C@@H](c2ccc(O)cc2)N1c1ccc(F)cc1 [ezetimibe]
Reduction in cholesterol permeability [4]: 62 ± 5%

Further lines, results first:

Papp at 6 h, 0.24 mg/mL ([2]; Caco-2, apical sample: extract (0.240 mg/mL), Caco-2, 6 h, read-out: Papp): 6.5 ×10⁻⁶ cm/s
Papp at 6 h, 0.24 mg/mL ([2]; Caco-2, apical sample: extract, Caco-2, read-out: Permeability class (from Papp)): 1 to 10 ×10⁻⁶ cm/s
SMILES: O=C(/C=C/c1ccc(O)c(O)c1)O[C@@H]1C[C@](O)(C(=O)O)C[C@@H](O)[C@H]1O [Chlorogenic Acid (3), Chlorogenic Acid]

Papp ([1]; human, Caco-2, 6 h, 0.24 mg/mL): 24.0 10^−6 cm/s
Papp at 6 h, 0.24 mg/mL ([2]; Caco-2, Permeability class (from Papp)): > 10 ×10⁻⁶ cm/s
SMILES: Oc1cc(O)c2c(c1)O[C@H](c1ccc(O)c(O)c1)[C@H](O)C2 [Epicatechin (15), (−)-Epicatechin]
